This is an account of results in patent US7772235B2, “mGluR5 modulators” (Astrazeneca AB, priority 2006, dated 2010).

Several values for one entry are separate records, joined by “and”; a condition that tells them apart may be missing. Identical values can stand only once. Bounds are passed on as bounds.

In one data set the target is T1, human mGluR5d (Homo sapiens, UniProt P41594).
T1 construct: expressed in transfected cells
T1 sequence (P41594 21-942 isoform P41594-3 limits assumed): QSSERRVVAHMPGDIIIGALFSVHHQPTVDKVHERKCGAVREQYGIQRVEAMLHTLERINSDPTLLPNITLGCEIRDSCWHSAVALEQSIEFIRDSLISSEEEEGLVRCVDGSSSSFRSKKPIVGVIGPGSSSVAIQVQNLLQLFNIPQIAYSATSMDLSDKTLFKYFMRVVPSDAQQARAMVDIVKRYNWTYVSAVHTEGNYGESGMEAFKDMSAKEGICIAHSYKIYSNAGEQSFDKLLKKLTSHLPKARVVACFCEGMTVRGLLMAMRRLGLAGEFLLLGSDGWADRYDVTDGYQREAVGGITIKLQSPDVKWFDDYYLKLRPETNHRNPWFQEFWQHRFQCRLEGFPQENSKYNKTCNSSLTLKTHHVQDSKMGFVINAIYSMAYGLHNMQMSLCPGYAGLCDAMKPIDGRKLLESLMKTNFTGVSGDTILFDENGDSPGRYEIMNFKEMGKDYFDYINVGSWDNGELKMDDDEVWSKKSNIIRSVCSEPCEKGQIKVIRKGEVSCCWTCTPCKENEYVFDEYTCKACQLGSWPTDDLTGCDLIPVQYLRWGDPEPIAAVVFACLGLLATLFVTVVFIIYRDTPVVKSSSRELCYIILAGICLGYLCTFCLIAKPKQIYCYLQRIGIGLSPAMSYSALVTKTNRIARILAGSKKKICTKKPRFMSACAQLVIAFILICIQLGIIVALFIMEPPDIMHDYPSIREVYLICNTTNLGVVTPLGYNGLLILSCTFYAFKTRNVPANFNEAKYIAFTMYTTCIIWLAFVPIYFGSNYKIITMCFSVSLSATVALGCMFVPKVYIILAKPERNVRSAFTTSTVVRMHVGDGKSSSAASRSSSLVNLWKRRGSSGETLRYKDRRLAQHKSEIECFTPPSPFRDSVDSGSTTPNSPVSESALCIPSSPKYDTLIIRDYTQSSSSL
The experiment in a line: FLIPR assay of mGluR5 antagonism (intracellular calcium mobilization). The class given is cell-based. Particulars: cells expressing human mGluR5d. From the text:
The properties of the compounds of the invention can be analyzed using standard assays for pharmacological activity. Examples of glutamate receptor assays are well known in the art as described in for example Aramori et al., Neuron 8:757 (1992), Tanabe et al., Neuron 8:169 (1992), Miller et al., J. Neuroscience 15: 6103 (1995), Balazs, et al., J. Neurochemistry 69:151 (1997). The methodology described in these publications is incorporated herein by reference. Conveniently, the compounds of the invention can be studied by means of an assay (FLIPR) that measures the mobilization of intracellular calcium, [Ca^2+]i in cells expressing mGluR5 or another assay (IP3) that measures inositol phosphate turnover.
Cells expressing human mGluR5d as described in WO97/05252 are seeded at a density of 100,000 cells per well on collagen coated clear bottom 96-well plates with black sides and experiments are done 24 h following seeding. All assays are done in a buffer containing 127 mM NaCl, 5 mM KCl, 2 mM MgCl2, 0.7 mM NaH2PO4, 2 mM CaCl2, 0.422 mg/mL NaHCO3, 2.4 mg/mL HEPES, 1.8 mg/mL glucose and 1 mg/mL BSA Fraction IV (pH 7.4). Cell cultures in the 96-well plates are loaded for 60 minutes in the above mentioned buffer containing 4 μM of the acetoxymethyl ester form of the fluorescent calcium indicator fluo-3 (Molecular Probes, Eugene, Oreg.) in 0.01% pluronic acid (a proprietary, non-ionic surfactant polyol—CAS Number 9003-11-6). Following the loading period the fluo-3 buffer is removed and replaced with fresh assay buffer. FLIPR experiments are done using a laser setting of 0.800 W and a 0.4 second CCD camera shutter speed with excitation and emission wavelengths of 488 nm and 562 nm, respectively. Each experiment is initiated with 160 μl of buffer present in each well of the cell plate. A 40 μl addition from the antagonist plate was followed by a 50 μL addition from the agonist plate. A 30 minute interval separates the antagonist and agonist additions. The fluorescence signal is sampled 50 times at 1 second intervals followed by 3 samples at 5 second intervals immediately after each of the two additions. Responses are measured as the difference between the peak height of the response to agonist, less the background fluorescence within the sample period. IC50 determinations are made using a linear least squares fitting program.
The term IC50 denotes the concentration that inhibits the measured activity by half. As to `Cc1cccc(-n2nnc([C@@H](C)Oc3nnc(-c4cn[nH]c(=O)c4)n3C)n2)c1` [Example 38.6, 5-(4-Methyl-5-{(1R)-1-[2-(3-methylphenyl)-2H-tetrazol-5-yl]ethoxy}-4H-1,2,4-triazol-3-yl)pyridazin-3(2H)-one], the IC50 amounted to 7 nM. As for `C[C@@H](Oc1nnc(-c2cn[nH]c(=O)c2)n1C)c1cc(-c2cccc(Cl)c2)on1` [Example 38.5, 5-(5-{(1R)-1-[5-(3-Chlorophenyl)isoxazol-3-yl]ethoxy}-4-methyl-4H-1,2,4-triazol-3-yl)pyridazin-3(2H)-one], the half-maximal inhibitory concentration (IC50) turned out to be 8 nM. On to `C[C@@H](Oc1nnc(-c2cc[nH]c(=O)c2)n1C)c1noc(-c2cccc(Cl)c2)n1` [Example 38.1, 4-(5-{(R)-1-[5-(3-Chloro-phenyl)-[1,2,4]oxadiazol-3-yl]-ethoxy}-4-methyl-4H-[1,2,4]triazol-3-yl)-1H-pyridin-2-one], for which the IC50 came to 13 nM. With `C[C@@H](Oc1nnc(-c2ccn(C)c(=O)c2)n1C)c1cc(-c2cccc(Cl)c2)on1` [Example 36.1, 4-(5-{(1R)-1-[5-(3-Chlorophenyl)isoxazol-3-yl]ethoxy}-4-methyl-4H-1,2,4-triazol-3-yl)-1-methylpyridin-2(1H)-one], the concentration for half-maximal inhibition (IC50) amounted to 19 nM. For the compound `Cn1c(OCc2cc(-c3cccc(Cl)c3)on2)nnc1-c1cc[nH]c(=O)c1` [Example 37.2, 4-(5-{[5-(3-chlorophenyl)isoxazol-3-yl]methoxy}-4-methyl-4H-1,2,4-triazol-3-yl)pyridin-2(1H)-one], the 50% inhibitory concentration (IC50) is > 3000 nM and 1580 nM. On the same count and under the same terms, the result for `Cc1cccc(-c2cc([C@@H](C)Oc3nnc(-c4cn[nH]c(=O)c4)n3C)no2)c1` [Example 38.7, 5-(4-Methyl-5-{(1R)-1-[5-(3-methylphenyl)isoxazol-3-yl]ethoxy}-4H-1,2,4-triazol-3-yl)pyridazin-3(2H)-one] reads 12 nM; that for `C[C@@H](Oc1nnc(-c2cn[nH]c(=O)c2)n1C)c1noc(-c2cccc(Cl)c2)n1` [Example 38.4, 5-(5-{(1R)-1-[5-(3-Chlorophenyl)-1,2,4-oxadiazol-3-yl]ethoxy}-4-methyl-4H-1,2,4-triazol-3-yl)pyridazin-3(2H)-one], 15 nM; that for `C[C@@H](Oc1nnc(-c2cn[nH]c(=O)c2)n1C)c1nnn(-c2cccc(Cl)c2)n1` [Example 38.3, 5-(5-{(1R)-1-[2-(3-Chlorophenyl)-2H-tetrazol-5-yl]ethoxy}-4-methyl-4H-1,2,4-triazol-3-yl)pyridazin-3(2H)-one], 6 nM.

As for `C[C@@H](Oc1nnc(-c2cc[nH]c(=O)c2)n1C)c1nnn(-c2cccc(Cl)c2)n1` [Example 38.2, 4-(5-{(1R)-1-[2-(3-Chlorophenyl)-2H-tetrazol-5-yl]ethoxy}-4-methyl-4H-1,2,4-triazol-3-yl)pyridin-2(1H)-one], the IC50 was 9 nM.

Take `C[C@@H](Oc1nnc(-c2cc[nH]c(=O)c2)n1C)c1cc(-c2cccc(Cl)c2)on1` [Example 37.3, 4-(5-{(1R)-1-[5-(3-Chlorophenyl)isoxazol-3-yl]ethoxy}-4-methyl-4H-1,2,4-triazol-3-yl)pyridin-2(1H)-one]: the IC50 was 10 nM. Same read-out and setting: the result for `C[C@@H](Oc1nnc(-c2ccn(C)c(=O)c2)n1C)c1noc(-c2cccc(Cl)c2)n1` [Example 36.2, 4-(5-{(1R)-1-[5-(3-Chlorophenyl)-1,2,4-oxadiazol-3-yl]ethoxy}-4-methyl-4H-1,2,4-triazol-3-yl)-1-methylpyridin-2(1H)-one] reads 20 nM.

System in the next data set: not listed separately
The experiment in a line: Determination of brain to plasma ratio (B/P ratio) in rat. It is filed as in vivo, female Sprague Dawley rats. Particulars: female, Sprague-Dawley, read-out: B/P Ratio (drug in brain over drug in plasma). As to the method: Brain to plasma ratios are estimated in female Sprague Dawley rats. The compound is dissolved in water or another appropriate vehicle. For determination of brain to plasma ratio the compound is administrated as a subcutaneous, or an intravenous bolus injection, or an intravenous infusion, or an oral administration. At a predetermined time point after the administration a blood sample is taken with cardiac puncture. The rat is terminated by cutting the heart open, and the brain is immediately retained. The blood samples are collected in heparinized tubes and centrifuged within 30 minutes, in order to separate the plasma from the blood cells. The plasma is transferred to 96-well plates and stored at −20° C. until analysis. The brains are divided in half, and each half is placed in a pre-tarred tube and stored at −20° C. until analysis. Prior to the analysis, the brain samples are thawed and 3 mL/g brain tissue of distilled water is added to the tubes. The brain samples are sonicated in an ice bath until the samples are homogenized. Both brain and plasma samples are precipitated with acetonitrile. After centrifugation, the supernatant is diluted with 0.2% formic acid. […] After reconstitution of the residuals the samples are ready for injection onto the HPLC column.
With `C[C@@H](Oc1nnc(-c2ccncc2)n1C)c1cc(-c2cccc(Cl)c2)on1` [reference compound], the Kp amounted to 0.8.

In the case of `C[C@@H](Oc1nnc(-c2cc[nH]c(=O)c2)n1C)c1cc(-c2cccc(Cl)c2)on1` [Example 37.3, 4-(5-{(1R)-1-[5-(3-Chlorophenyl)isoxazol-3-yl]ethoxy}-4-methyl-4H-1,2,4-triazol-3-yl)pyridin-2(1H)-one], the Kp worked out at 0.02.
